These results are taken from patent US12265087B2, “Olfactory receptor as microglia marker and use thereof” (DAEGU GYEONGBUK INSTITUTE OF SCIENCE AND TECHNOLOGY, priority 2019, dated 2025).

Entries after “also recorded” stand apart in the source; their conditions may differ.

One experiment relates to Olfr111. Kind of experiment: Luciferase assay in Hana3A cells transfected with Olfr111. It is filed as cell-based, mouse. Particulars: Hana3A cells.
Experiment [1] relates to primary microglia. Description: ROS / superoxide generation in primary microglia. It is filed as cell-based, mouse. The protocol:
Superoxide concentrations were calculated by measuring the degree ofcytochrome c reduction using a VersaMax microplate reader (Babior et al., 1973). Microglia were cultured in a 96 well plate at a concentration of 1.0×10^5 cells/well, and the microglia were activated by a 10 μM ATP solution containing 2-PF and cytochrome c, or a solution in which Sup is mixed with cytochalasin B (5 μM; #C66762; Sigma Aldrich). The concentration of ROS was measured through a change in light absorption every minute for 25 minutes at 550 nm.
ROS levels were measured using 2′,7′-dichlorodihydrofluorescein diacetate (DCF-DA, #D6883; Sigma Aldrich) by a previously described method with minor modifications (Bae et al., 2001). More specifically, primary microglia were seeded in 24-well plates (5.0×10^5 cells/well) for 24 hours, and then treated with 10 μM DCF-DA at 37° C. for 30 minutes. One plate was treated with 2-PF, and the other one was not. The cells in each well were measured using a flow cytometer (FACS Accuri™ C6; BD Biosciences). MFI was measured as described above.

Experiment [2] can be described thus: Disease behavior: mouse mobility after IP injection. It counts as in vivo. Particulars: 2-PF injection (IP), three concentrations. The method, then: It is known that an increase in disease behavior by microglial activation is due to an increase in secreted cytokines. To confirm the increase in disease behavior with the increase in cytokines, this experiment was conducted. The evaluation of disease behavior was accomplished after IP injection of Sup or 2-PF into the mice.
After IP injection, a mouse was placed in a space with four open sides (40×40×40 cm, white field, black wall), and the location of the mouse was recorded with a camera for 30 minutes, and then a moving distance thereof was calculated. Afterward, the data was plotted in a pseudo-color heat map using EthoVision XT (Noldus, Netherlands).

Experiment [3] relates to primary microglia. Kind of experiment: cAMP ELISA in primary microglia. It is filed as cell-based, mouse. The settings on record: 2-PF 0, 100, 500 μM. The protocol:
Primary microglia were seeded in 48-well plates (2×10^5 cells/well) and treated with 30 μM forskolin (#F3917, Sigma Aldrich) or 2-PF (10, 100, 500 μM) for 30 minutes. To confirm the effect of an inhibitor, 1 mM of S Q22536 (#17318-31-9; Calbiochem) was pretreated first for 30 minutes. The cells were lysed in 0.1 M of HCl with 1% Triton X 100 for 10 minutes, the lysate was centrifuged at 600×g for 2 minutes. The resulting supernatant was directly used for cAMP analysis with a cAMP ELISA kit (Enzo Life Science) according to the manufacturer's protocol. An optical density at 405 nm was measured using a VersaMax microplate reader (Molecular Devices).

Experiment [4] relates to primary microglia. Kind of experiment: mRNA-sequencing of primary microglia (DEGs, GOBP). It counts as cell-based, mouse. Particulars: Sup MOI 100 or 2-PF 100 μM, 2 hours. The method, then:
After a vehicle (control), Sup (MOI 100) or 2-PF (100 μM) treatment for 2 hours, total RNA was isolated from 2×10^6 cells of primary microglia using a RNeasy miniKit (Qiagen, 74104), and analyzed using a Qubit RNA HS assay kit (Thermo Fisher Scientific, Q32852) according to the manufacturer's standard protocol for quantification. The RNA integrity number (RIN) of each sample was measured using the Agilent Technologies 2100 BioAnalyzer, and the RINs of all samples were 8.5 or more, which is suitable for mRNA sequencing. Full-length cDNA was generated using a SMARTer-Seq v4 Ultra Low input RNA Kit (Clontech, 634888) according to the manufacturer's recommended protocol. The first strand synthesis of cDNA was initiated from 10 ng total RNA by adding 1 μl of 3′ SMART CDS primer II A for 3 minutes at 72° C. […] After PCR, the DNA library was purified using AMPure beads and quality was assessed by an Agilent 2100 Bioanalyzer. A DNA library of each sample was quantified using a KAPA library quantification kit (KAPA Biosystems, KK4854) and then pooled. All libraries were sequenced using an Illumina Hiseq2500 instrument to generate dual-indexed 100-bp paired reads, thereby obtaining an average of 58 million reads for each sample. […] The remaining reads were aligned to the mouse reference genome (GRCm38) using TopHat (Trapnell et al., 2009) with default options. […]

Protocol for Olfr111: A Dual-Glo luciferase assay system (#E2940; Promega) was used for OR ligand screening. More specifically, Hana3A cells were seeded in white polystyrene 96-well plates (#353296; BD Biosciences) one day before transfection. pCRELuc (1 μg; #219076; Agilent Technologies), pRL-SV40 (1 μg; #E2231; Promega), RTP1S (1 μg), and OR (6 μg; or Mock) vectors were transfected for 24 hours in each plate. Analysis was performed using Lipofectamine 2000 (#11668-019; Thermo Fisher Scientific) according to the manufacturer's protocols. Transfected cells were stimulated at 37° C. for 4 hours with various concentrations of diluted odorants in a CD293 medium (#11913-019; Thermo Fisher Scientific). The activity of luciferase was normalized to that of Renilla luciferase. Luminescence was measured using a SpectraMax L microplate reader (Molecular Devices).

As to `CCCCCc1ccco1` [2-PF, 2-pentylfuran], the “reactivity with Olfr111 (relative luciferase activity)” value with Olfr111 is “selective ligands; also recorded: showed reactivity”. The “ROS generation on top of Sup MOI 5” value in the experiment on primary microglia [1] (500 μM 2-PF with Sup MOI 5) is “further increased”. In addition, in the experiment on primary microglia [1] (100, 300 and 500 μM), the ROS secretion result is “significantly increased in a concentration-dependent manner”. In addition, the mouse mobility entry in experiment [2] is given as “concentration-dependent decrease”. Further, the cAMP concentration result in the experiment with primary microglia [3] was “increased by 2-PF treatment in a concentration dependent manner”. In addition, the “genes regulated (mRNA-seq)” value in the experiment on primary microglia [4] is recorded as “up-regulate genes involved in microglial activation”.
